Here are results for 45 molecules from ChEMBL document CHEMBL1201862, “PubChem BioAssay data set” (2004).

Calls of active or inactive are those of the source.

For data set [1], the system named is Streptococcus sp. 'group A'. As to the kind of experiment: growth inhibition of control SK(-) GAS strain, dose response, counter-screen for streptokinase expression inhibitor project, luminescence, kanamycin, BacTiterGlo, confirmation (AID 1900). Format: functional, organism-based.
Data set [2] deals with Streptococcus. As to the kind of experiment: Group A Streptococcus viability loss, dose response, counter-screen for streptokinase expression inhibitor project, luminescence, BacTiterGlo (AID 1915).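 Note: potency for reduction of bacterial viability or growth.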 Type of data set: functional, organism-based. A general note: A counterscreen serves to expose hits that act by an unwanted route or on another target.
The target of data set [3] is Cytochrome P450 2C19 (Homo sapiens, UniProt P33261). The data set can be described thus: Cytochrome panel assay with activity outcomes. Panel member name: p450-cyp2c19 Compounds with AC50 equal or less than 10 uM are considered active. Format: functional.
Data set [4] concerns the target T1, Cytochrome P450 1A2 (Homo sapiens, UniProt P05177).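 Note: PubChem cytochrome P450 panel assay, CYP1A2 panel member.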
T1 sequence (P05177 whole entry): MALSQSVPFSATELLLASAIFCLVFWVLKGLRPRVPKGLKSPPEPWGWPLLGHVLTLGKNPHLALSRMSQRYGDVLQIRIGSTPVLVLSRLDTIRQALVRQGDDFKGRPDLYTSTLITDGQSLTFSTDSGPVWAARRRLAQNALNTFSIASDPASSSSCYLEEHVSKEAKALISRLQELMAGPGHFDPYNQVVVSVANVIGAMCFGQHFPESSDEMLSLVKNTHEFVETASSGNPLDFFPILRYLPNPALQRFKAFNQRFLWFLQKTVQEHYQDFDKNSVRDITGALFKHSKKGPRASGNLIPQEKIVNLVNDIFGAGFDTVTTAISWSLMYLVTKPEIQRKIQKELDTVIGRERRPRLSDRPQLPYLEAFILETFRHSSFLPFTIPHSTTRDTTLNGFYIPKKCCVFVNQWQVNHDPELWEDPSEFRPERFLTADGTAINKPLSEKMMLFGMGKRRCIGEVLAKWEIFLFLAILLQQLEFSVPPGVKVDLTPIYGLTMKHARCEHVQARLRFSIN

The target in data set [5] is Cytochrome P450 3A4 (Homo sapiens, UniProt P08684).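 Note: CYP3A4 tested as one member of a cytochrome P450 panel screen.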
The target of data set [6] is Cytochrome P450 2C9 (Homo sapiens, UniProt P11712).
Data set [7] has as its system H9c2. The data set can be described thus: cells. Format: functional, cell-based. The note with it: Rattus norvegicus, H9c2, Myocardium.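 Note: confirmatory concentration-response retest of ultra-high-throughput screening hits for modulation of myocardial damage; cell death induced by hydrogen peroxide oxidative stress; compound pretreatment for 60 min then peroxide exposure for 2 h; potency is for protecting the cells against peroxide damage rather than for killing them.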
Data set [8] deals with T2, Corticotropin-releasing factor receptor 2/Corticotropin-releasing factor-binding protein (Homo sapiens, UniProt P24387+Q13324).
T2 sequence (Q13324 whole entry): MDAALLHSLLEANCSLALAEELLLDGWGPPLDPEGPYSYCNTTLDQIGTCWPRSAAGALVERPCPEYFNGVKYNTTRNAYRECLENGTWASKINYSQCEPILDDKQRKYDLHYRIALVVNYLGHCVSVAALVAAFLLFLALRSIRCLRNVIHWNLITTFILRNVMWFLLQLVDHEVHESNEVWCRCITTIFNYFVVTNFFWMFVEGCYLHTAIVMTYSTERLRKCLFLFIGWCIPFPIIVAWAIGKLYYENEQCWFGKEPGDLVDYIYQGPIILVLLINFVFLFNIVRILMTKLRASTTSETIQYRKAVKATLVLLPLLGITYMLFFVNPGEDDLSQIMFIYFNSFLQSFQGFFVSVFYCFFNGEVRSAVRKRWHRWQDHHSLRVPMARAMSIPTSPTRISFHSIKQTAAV
T2 sequence (P24387 whole entry): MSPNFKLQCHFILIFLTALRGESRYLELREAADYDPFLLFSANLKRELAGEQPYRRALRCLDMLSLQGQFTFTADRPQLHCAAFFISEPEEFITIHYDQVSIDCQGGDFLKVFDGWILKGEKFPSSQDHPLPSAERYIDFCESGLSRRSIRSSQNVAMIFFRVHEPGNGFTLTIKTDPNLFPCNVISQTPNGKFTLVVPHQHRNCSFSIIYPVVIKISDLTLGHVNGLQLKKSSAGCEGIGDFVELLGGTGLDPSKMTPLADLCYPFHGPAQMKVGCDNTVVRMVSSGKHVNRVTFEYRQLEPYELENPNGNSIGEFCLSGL
As to the kind of experiment: Dose Response confirmation of uHTS hits for small molecule antagonists of the CRF-binding protein and CRF-R2 receptor complex. Format: functional. The note with it: read-out: IC50_Mean.

Data set [9] has as its target T2, Corticotropin-releasing factor receptor 2/Corticotropin-releasing factor-binding protein. The data set can be described thus: activators of CRF receptor 2 with binding protein – uHTS hits, confirmation (AID 602473). Type of data set: functional. The note with it: read-out: EC50_Mean.
Data set [10] can be described thus: Luminescence Cell-Based Dose Response HTS to Identify Activators of Luciferase Translation or Activity in H4 […] Cells. [Related pubchem assays: 1829 (Project Summary), 1814 (Primary HTS)]. Type of data set: functional.
The nature of data set [11]: NIH-3T3 fibroblast cytotoxicity, dose response, cytotoxicity control, cell-based, fluorescence, Alamar Blue, secondary assay (AID 2327).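 Note: NIH-3T3 mouse fibroblasts cultured with fluconazole at 8 µg/mL.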 Type of data set: functional.
Data set [12] can be described thus: C. albicans growth with fluconazole, confirmation, fluorescence, retest (AID 2467). Type of data set: functional, cell-based.

Chain of Cytochrome P450 3A4 (P08684 whole entry): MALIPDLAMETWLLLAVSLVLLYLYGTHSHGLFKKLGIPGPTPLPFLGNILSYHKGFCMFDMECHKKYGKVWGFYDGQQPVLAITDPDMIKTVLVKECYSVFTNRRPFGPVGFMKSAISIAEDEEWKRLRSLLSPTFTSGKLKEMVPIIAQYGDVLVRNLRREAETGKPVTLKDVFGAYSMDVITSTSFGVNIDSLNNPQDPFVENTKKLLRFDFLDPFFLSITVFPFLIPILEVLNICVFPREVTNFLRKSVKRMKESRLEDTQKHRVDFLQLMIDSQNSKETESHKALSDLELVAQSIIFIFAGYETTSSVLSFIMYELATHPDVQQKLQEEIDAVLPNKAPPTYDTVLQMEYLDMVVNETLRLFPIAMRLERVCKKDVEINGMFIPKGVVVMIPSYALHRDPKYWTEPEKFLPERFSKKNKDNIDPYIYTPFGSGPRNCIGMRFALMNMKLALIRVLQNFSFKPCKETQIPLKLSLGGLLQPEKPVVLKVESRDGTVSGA
Chain of Cytochrome P450 2C9 (P11712 whole entry): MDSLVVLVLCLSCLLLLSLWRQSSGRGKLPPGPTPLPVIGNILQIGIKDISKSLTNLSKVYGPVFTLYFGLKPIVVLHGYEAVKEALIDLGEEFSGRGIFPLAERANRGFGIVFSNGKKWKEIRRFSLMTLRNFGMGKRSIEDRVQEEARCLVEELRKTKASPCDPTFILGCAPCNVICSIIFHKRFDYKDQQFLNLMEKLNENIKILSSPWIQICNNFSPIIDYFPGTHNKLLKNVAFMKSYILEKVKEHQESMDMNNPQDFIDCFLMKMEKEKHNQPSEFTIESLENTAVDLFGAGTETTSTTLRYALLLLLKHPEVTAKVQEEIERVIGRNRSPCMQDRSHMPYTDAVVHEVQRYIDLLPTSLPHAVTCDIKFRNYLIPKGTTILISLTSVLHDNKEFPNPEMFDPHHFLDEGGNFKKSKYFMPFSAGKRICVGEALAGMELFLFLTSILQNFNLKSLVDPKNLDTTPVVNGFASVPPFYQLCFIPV
Chain of Cytochrome P450 2C19 (P33261 whole entry): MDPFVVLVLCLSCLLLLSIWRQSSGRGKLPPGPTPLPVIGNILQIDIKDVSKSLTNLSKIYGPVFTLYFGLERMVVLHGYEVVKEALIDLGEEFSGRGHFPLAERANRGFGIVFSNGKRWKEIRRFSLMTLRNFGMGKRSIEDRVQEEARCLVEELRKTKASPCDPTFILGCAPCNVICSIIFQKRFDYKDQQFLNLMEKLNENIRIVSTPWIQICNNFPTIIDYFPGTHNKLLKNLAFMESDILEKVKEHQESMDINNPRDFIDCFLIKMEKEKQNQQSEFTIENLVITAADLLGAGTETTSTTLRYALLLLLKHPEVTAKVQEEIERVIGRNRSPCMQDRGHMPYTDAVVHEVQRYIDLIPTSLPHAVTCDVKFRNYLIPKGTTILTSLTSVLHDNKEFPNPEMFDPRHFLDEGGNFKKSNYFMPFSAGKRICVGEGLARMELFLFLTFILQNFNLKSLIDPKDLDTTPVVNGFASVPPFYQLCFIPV

Take `O=C(NC(=S)N1CCN(c2nc(-c3ccccc3)cs2)CC1)c1cncc(Br)c1`: the values for the EC50 in data set [1] and in data set [2] were 3.04 µM (active) and 3.91 µM (active), respectively.

In general, AC50 refers to the midpoint of the concentration-response curve, whichever way the signal moves. As for `C=CCNC(S)=NNc1ncnc2sc3c(c12)CC(C)(C)OC3`, the AC50 in [3] (read-out: AC50) is 8.91 µM (inconclusive); in data set [4] it was 12.6 µM (inconclusive); in [5] it was 17.8 µM (inconclusive); in data set [6], 8.91 µM (inconclusive).

In the case of `COc1cccc(Nc2nc3ccccc3n3nnnc23)c1`, the IC50 in data set [7] is > 79 µM (inactive).

Turning to `Cc1ccccc1Cn1c(=O)sc2ccccc2c1=O`, the IC50 in data set [8] was > 47.1 µM (inactive). Besides, the EC50 in data set [9] is > 53 µM (inactive).

For `CC#CCCCC(=O)Nc1ccccc1C(=O)O`, the IC50 in data set [8] is > 47.1 µM (inactive). The EC50 in data set [9] was > 53 µM (inactive).

With `CCN1CCN(C(=O)C2c3cc(OC)c(OC)cc3C(=O)N3CCc4ccccc4C23)CC1` (centres undefined), the AC50 entry in data set [3] was “inconclusive”; in [5] it was 28.2 µM (inconclusive).

`CCOc1ccc(NC(=O)Nc2cc(C)ccc2OC)cc1`: the IC50 in data set [8] was > 47.1 µM (inactive). Also, the EC50 in data set [9] is > 53 µM (inactive).

Consider `Cc1ccc(NC(=O)CSC(C)C(=O)OCc2cc(=O)oc3cc(O)ccc23)cc1` (centres undefined), for which the IC50 in [7] was > 79 µM (inactive).

On to `COc1cccc(Cn2c(=O)c(-c3cccs3)nc3cnc(N(C)C)nc32)c1`, for which the concentration at half-maximal activity (AC50) in [3] (read-out: AC50) was 0.00631 µM (inconclusive); in data set [4], 15.8 µM (inconclusive); in data set [5], 15.8 µM (inconclusive).

`Cn1c(C(=O)NCCc2ccsc2)cc2c(=O)n(C)c3ccccc3c21`: the IC50 in [7] was > 79 µM (inactive).

`O=C(Nc1cccc(O)c1)c1ccc(NC(=O)c2cccs2)cc1`: the IC50 in data set [8] was > 47.1 µM (inactive). In addition, in [9], the EC50 is > 53 µM (inactive).

On to `Cc1ccc(S(=O)(=O)N2CCN(C(=O)CCc3nc(O)c4ccccc4n3)CC2)c(C)c1`, for which the IC50 in data set [7] was > 79 µM (inactive).

For the molecule `O=C(CN1CCCCC1)Nc1nc(-c2ccc(F)c(F)c2)cs1`, in [7], the IC50 was > 79 µM (inactive).

`COc1ccccc1C(=O)O/N=C1/CCCc2c1ccc(OC)c2[N+](=O)[O-]`: in data set [5], the AC50 is 22.4 µM (inconclusive).

For `COc1ccccc1CN1CCCC2(CCN(C(=O)Oc3ccccc3)CC2)C1`, the AC50 in data set [5] is 15.8 µM (inconclusive).

With `COc1cccc(Cn2c(=O)c(-c3cccs3)nc3cnc(Nc4cccc(OC)c4)nc32)c1`, the AC50 in [4] is 2.51 µM (inconclusive); in data set [5], 12.6 µM (inconclusive); in data set [6], 0.794 µM (inconclusive).

In the case of `CC(=O)Nc1cccc(NC(=O)c2cc(-c3cccnc3)nc3ccc(Cl)cc23)c1`, in data set [7], the IC50 was > 79 µM (inactive).

With `CCC(C)NS(=O)(=O)c1ccc(OCC(=O)Nc2ccc3c(c2)OCCO3)cc1` (centres undefined), the values for the concentration at half-maximal activity (AC50) in data set [3] (read-out: AC50) and in [5] were 7.08 µM (inconclusive) and 15.8 µM (inconclusive), respectively.

With `Cc1[nH]c(=O)[nH]c(=O)c1S(=O)(=O)N1CCCC(C(=O)N2CCN(c3ccccc3Cl)CC2)C1` (centres undefined), the IC50 in [8] is > 47.1 µM (inactive). Moreover, the EC50 in data set [9] was > 53 µM (inactive).

On to `O=c1c(-c2cc(F)cc(F)c2)nc2cncnc2n1Cc1ccccc1Cl`, for which the AC50 was 5.01 µM (inconclusive) in data set [4] and 15.8 µM (inconclusive) in data set [5].

Consider `COc1ccc(NC(=O)c2cc(S(=O)(=O)N3CCS(=O)(=O)CC3)ccc2Cl)cc1`, for which, in [5], the AC50 is 14.1 µM (inconclusive).

Take `CCCCCn1nc(C(=O)OCC(=O)c2c(N)n(C)c(=O)n(C)c2=O)c2ccccc2c1=O`: the IC50 in data set [7] is > 79 µM (inactive).

As for `C/C(O)=C(/C#N)C(=O)Nc1cc(Br)ccc1Br`, the AC50 in data set [5] was 15.8 µM (inconclusive).

As to `CN1CCN(c2ncc3nc(-c4cc(F)cc(F)c4)c(=O)n(CCC#N)c3n2)CC1`, the AC50 in [4] is 15.8 µM (inconclusive); in data set [5] it was 15.8 µM (inconclusive); in data set [6], 31.6 µM (inconclusive).

In the case of `O=C(C[C@H]1C/C=C\CC[C@H](Cc2ccc(F)cc2)C(=O)O[C@@H](c2ccccc2)CNC1=O)N[C@H](CO)Cc1ccccc1`, the IC50 in data set [7] was > 79 µM (inactive).

Turning to `COc1cccc(C(=O)Nc2cc(C)c3c(=O)oc4ccccc4c3n2)c1`, the IC50 in [7] was > 79 µM (inactive).

With `CCn1nc(C(=O)NNC(=O)c2cc(Cl)ccc2OC)c2ccccc2c1=O`, the IC50 in data set [7] was > 79 µM (inactive).

On to `CCOC(=O)c1sc(NC(=O)C(C)(C)C)cc1C`, for which the EC50 in [10] was 13 µM (active).

As for `Cc1ccc(NC(=O)COC(=O)CCC(=O)c2cccs2)c(Br)c1`, in data set [8], the IC50 was > 47.1 µM (inactive). Also, the EC50 in data set [9] is > 53 µM (inactive).

Take `Cc1cc(OCc2nc(N)nc(N)c2-c2ccc(Cl)c(Cl)c2)ccc1[N+](=O)[O-]`: the values for the AC50 in data set [4] and in [5] were 5.01 µM (inconclusive) and 3.98 µM (inconclusive), respectively.

For `O=C1CCc2cc(S(=O)(=O)N3CCC(C(=O)NC4CCCCCCC4)CC3)ccc2N1`, the IC50 in [8] was > 47.1 µM (inactive). In addition, the EC50 in data set [9] is 34 µM (active).

Take `O=C(CCCSc1nc(O)c2c3c(sc2n1)CCC3)NCCO`: the IC50 in [7] was > 79 µM (inactive).

`Cc1ccccc1CN1C2=NCCN2C(=O)C2=C1CCN(Cc1ccccc1)C2`: the AC50 in data set [5] is 3.98 µM (inconclusive).

`NC(=O)c1ccc(NCC2COc3ccccc3O2)c([N+](=O)[O-])c1` (centres undefined): in [8], the IC50 is > 47.1 µM (inactive). Besides, in data set [9], the EC50 was > 53 µM (inactive).

In the case of `Cc1cc(C)n(C(=O)CNC(=O)c2ccccc2Br)n1`, the IC50 in data set [8] was > 47.1 µM (inactive). Also, the EC50 in data set [9] is > 53 µM (inactive).

For the molecule `CCN(CC(=O)Nc1c(F)cccc1F)C(=O)c1ccc2c(=O)n3c(nc2c1)CCC3`, in data set [8], the IC50 was > 47.1 µM (inactive). The EC50 in data set [9] was > 53 µM (inactive).

Take `CCOC(=O)c1csc(Nc2nc3ccc(F)cc3s2)n1`: the values for the EC50 in data set [1] and in [2] were 5.24 µM (active) and 11.4 µM (active), respectively.

In the case of `C/C(CC(=O)Nc1ccc(Cl)c(C(F)(F)F)c1)=N\NC(=O)c1ccccc1O`, the results for the EC50 in data set [1] and in data set [2] were 2.77 µM (active) and 3.68 µM (active), respectively.

On to `O=C(/C=C\c1ccc(-c2cccc([N+](=O)[O-])c2)o1)N1CCOCC1`, for which the values for the EC50 in [11] and in data set [12] were > 150 µM (inactive) and > 38 µM (not active), respectively.

For `CC(C)CN1CC[C@@]2(CCCN(C(=O)c3csnn3)C2)C1`, the AC50 in [5] was 20 µM (inconclusive).

Turning to `C=CC/N=C1\CC(C)(C)CC(O)=C1C(=O)c1ccccc1`, in [5], the AC50 was 25.1 µM (inconclusive).

On to `Cc1nnc(-c2cnn(-c3ccccc3)c2N)n1Cc1ccccc1`, for which the values for the AC50 in data set [5] and in data set [6] were 25.1 µM (inconclusive) and 39.8 µM (inconclusive), respectively.

Consider `Cc1c(Nc2scc(-c3ccccc3)[n+]2-c2ccccc2)c(=O)n(-c2ccccc2)n1C`, for which the EC50 was 18 µM (active) in data set [11] and 0.111 µM (active) in [12].

In the case of `CCOC(=O)C(Cc1ccc(NC(=O)/C(=C/c2ccc(OC(C)=O)cc2)NC(C)=O)cc1)N1C(=O)c2ccccc2C1=O` (centres undefined), in data set [7], the IC50 was > 79 µM (inactive).

With `Cc1ccc(S(=O)(=O)n2ccc(-c3cccc(OCc4c(F)cccc4Cl)c3)n2)cc1`, the AC50 in data set [5] was 7.94 µM (inconclusive).
